Test results: patent US6518401B2, “Tumor necrosis factor stimulated gene 6 (TSG-6) protein” (New York University, priority 1991, dated 2003)

Legend:
[1] = test system: TSG-12 mRNA; test: Northern blot analysis of TSG mRNA levels in FS-4 cells; type: cell-based, human; conditions: growth arrested FS-4 cells, 2 h; TNF 20 ng/ml, CHX 10 ug/ml, IFN-β 500 U/ml, IFN-γ 100 U/ml, IL-1-α 1 ng/ml, EGF 25 ng/ml, TGF-β 2 ng/ml, poly(I).poly(C) 50 ug/ml, TPA 100 ng/ml, A23187 1 uM, forskolin 10 uM, dBcAMP 100 uM, IBMX 100 uM
Procedure: (§1) The human diploid FS-4 foreskin fibroblast cell line (Vilcek, J. et al, Proc. Natl. Acad. Sci. USA 70:3909-3913 (1973)) was used at passage level 15 in all experiments. FS-4 cells were grown in Eagle minimal essential medium (E-MEM) supplemented with 6 mM HEPES, 3 mM Tricine, 50 μg/ml gentamicin, and 5% heat inactivated (56° C., 30 min) fetal bovine serum (FBS; GIBCO Laboratories, Grand Island, N.Y.). For experiments, 4×10^6 cells were seeded in 175 cm^2 Falcon flasks, incubated at 37° C., and allowed to grow to confluence over 6 days. The confluent monolayers were washed once with phosphate buffered saline and replenished with E-MEM containing […] FBS. The cultures were incubated in this medium for another 72 h at 37° C. to let the cells become quiescent and then treated with the appropriate agents, as specified herein.
(§2) Cytoplasmic RNA was fractionated on a 1% agarose gel containing formaldehyde and blotted onto Zeta-probe blotting membranes (Bio-Rad Laboratories, Richmond, Calif.). Cytoplasmic RNA was loaded at 10 μg/lane. Prehybridization and hybridization of Northern blots were performed as described (Lin, J.-X. et al, supra). Filters were probed with 32P-labeled cDNA insert from recombinant M13 clones and/or with 32P-labeled internal reference pHe7 insert. Northern blots were quantified with a laser densitometer.
(§3) The increase in mRNA levels ranged from about 3-fold (TSG-21) to over 100-fold (TSG-6 and TSG-8).
(§4) Table 3 provides a summary of a large number of experiments in which levels of mRNAs corresponding to the 8 distinct TSG cDNAs were determined in FS-4 cells exposed to various agents by Northern blot analysis. Three of the mRNAs (corresponding to TSG-8, TSG-12 and TSG-14) were inducible by the protein synthesis inhibitor, cycloheximide (CHX). […] In contrast, induction of the remaining 3 mRNAs by TNF was inhibited or reduced in the presence of CHX. Five of the mRNAs were inducible by IFN-β, but only two of these responded to […]. Simultaneous treatment with IFN-β reduced inducibility of TSG-1 (=IL-8) mRNA by TNF, but increased the inducibility of TSG-6 and TSG-37 mRNAs. All mRNAs were inducible by IL-1 and by the doublestranded RNA poly(I)-poly(C) or the phorbol ester 12-O-tetradecanoyl phorbol 13-acetate (TPA), but the efficiency of induction by these agents varied. Epidermal growth factor (EGF) was moderately efficient in increasing TSG-21 (=collagenase) and TSG-27 (=stromelysin) mRNA levels, and weakly stimulated several other mRNAs. PDGF and transforming growth factor-β (TGF-β) were only weakly effective, as were dibutyryl cyclic AMP (dBcAMP) and the phosphodiesterase inhibitor, isobutyl methyl xanthine (IBMX).

[2] = test system: TSG-1 (IL-8) mRNA; test: as above; type: cell-based, human; conditions: growth arrested FS-4 cells, 2 h; TNF 20 ng/ml, CHX 10 ug/ml, IFN-β 500 U/ml, IFN-γ 100 U/ml, IL-1-α 1 ng/ml, EGF 25 ng/ml, TGF-β 2 ng/ml, poly(I).poly(C) 50 ug/ml, TPA 100 ng/ml, A23187 1 uM, forskolin 10 uM, dBcAMP 100 uM, IBMX 100 uM
Procedure: as §1, §2, §3, §4

[3] = test system: TSG-14 mRNA; test: as above; type: cell-based, human; conditions: growth arrested FS-4 cells, 2 h; TNF 20 ng/ml, CHX 10 ug/ml, IFN-β 500 U/ml, IFN-γ 100 U/ml, IL-1-α 1 ng/ml, EGF 25 ng/ml, TGF-β 2 ng/ml, poly(I).poly(C) 50 ug/ml, TPA 100 ng/ml, A23187 1 uM, forskolin 10 uM, dBcAMP 100 uM, IBMX 100 uM
Procedure: as §1, §2, §3, §4

[4] = test system: TSG-8 (MCAF) mRNA; test: as above; type: cell-based, human; conditions: growth arrested FS-4 cells, 2 h; TNF 20 ng/ml, CHX 10 ug/ml, IFN-β 500 U/ml, IFN-γ 100 U/ml, IL-1-α 1 ng/ml, EGF 25 ng/ml, TGF-β 2 ng/ml, poly(I).poly(C) 50 ug/ml, TPA 100 ng/ml, A23187 1 uM, forskolin 10 uM, dBcAMP 100 uM, IBMX 100 uM
Procedure: as §1, §2, §3, §4

[5] = test system: TSG-6 mRNA; test: as above; type: cell-based, human; conditions: growth arrested FS-4 cells, 2 h; TNF 20 ng/ml, CHX 10 ug/ml, IFN-β 500 U/ml, IFN-γ 100 U/ml, IL-1-α 1 ng/ml, EGF 25 ng/ml, TGF-β 2 ng/ml, poly(I).poly(C) 50 ug/ml, TPA 100 ng/ml, A23187 1 uM, forskolin 10 uM, dBcAMP 100 uM, IBMX 100 uM
Procedure: as §1, §2, §3, §4

[6] = test system: TSG-37 (MT-II) mRNA; test: as above; type: cell-based, human; conditions: growth arrested FS-4 cells, 2 h; TNF 20 ng/ml, CHX 10 ug/ml, IFN-β 500 U/ml, IFN-γ 100 U/ml, IL-1-α 1 ng/ml, EGF 25 ng/ml, TGF-β 2 ng/ml, poly(I).poly(C) 50 ug/ml, TPA 100 ng/ml, A23187 1 uM, forskolin 10 uM, dBcAMP 100 uM, IBMX 100 uM
Procedure: as §1, §2, §3, §4

[7] = test system: TSG-27 (Stromelysin) mRNA; test: as above; type: cell-based, human; conditions: growth arrested FS-4 cells, 16 h of treatment; TNF 20 ng/ml, CHX 10 ug/ml, IFN-β 500 U/ml, IFN-γ 100 U/ml, IL-1-α 1 ng/ml, EGF 25 ng/ml, TGF-β 2 ng/ml, poly(I).poly(C) 50 ug/ml, TPA 100 ng/ml, forskolin 10 uM, IBMX 100 uM
Procedure: as §1, §2, §3, §4

[8] = test system: TSG-21 (Collagenase) mRNA; test: as above; type: cell-based, human; conditions: growth arrested FS-4 cells, 16 h of treatment; TNF 20 ng/ml, CHX 10 ug/ml, IFN-β 500 U/ml, IFN-γ 100 U/ml, IL-1-α 1 ng/ml, EGF 25 ng/ml, TGF-β 2 ng/ml, poly(I).poly(C) 50 ug/ml, TPA 100 ng/ml, forskolin 10 uM, IBMX 100 uM
Procedure: as §1, §2, §3, §4

[9] = Stability of the TSG-6/IαI complex to denaturants and enzymes; type: physicochemical
Procedure: 100 μL of a TN-5 B insect cell culture supernatant containing TSG-6 protein was incubated with 100 μL of a 1:50 dilution of human serum for 1 hr. at 37° C. Thereafter, one 100-μL aliquot was mixed with 2 mL of 8 M urea and concentrated in a Centricon-10 unit to 100 μL (lane 2); the other aliquot was left untreated (lane 1). The reaction mixtures were then separated by SDS-PAGE and subjected to Western blot analysis with anti-TSG-6 antibody.
Partially purified IαI was incubated in the absence (lane 1) or presence of purified TSG-6 protein (lanes 3-5) at 37° C. for 1 hr. The sample containing both IαI and TSG-6 protein was divided into aliquots and further incubated without enzyme (lane 3), with 800 milliunits of chondroitin sulfate ABC lyase (lane 4), or with 1.6 units of hyaluronidase (lane 5). Lane 2 is a TSG-6 control without IαI. The reaction mixtures were separated by SDS-PAGE and analyzed by Western blotting with anti-TSG-6 antibody.
The Stable Crosslink in the TSG-6/IαI COmplex is Provided by a Gylcosaminoglycan Chain. The stability of the 120 kDa TSG-6/IαI complex during SDS-PAGE under reducing conditions raises the question of the nature of the interaction between TSG-6 and the other components of the complex.
It is known that the three polypeptide chains of IαI are cross-linked by a chondroitin sulfate chain (Enghild et al, J. Biol. Chem. 264:15975-15981 (1989); Jenssen et al, FEBS Lett. 230:195-200 (1988); Balduyck et al, Biol. Chem. Hoppe-Seyler 370:329-336 (1989). It has been shown that bikunin, HC2 of IαLI, and HC3 of pre-α-inhibitor (PαI) are covalently bound to chondroitin 4-sulfate (Enghild et al, J. Biol. Chem. 264:15975-15981 (1989); J. Bio. Chem. 266:747-751 (1991); J. Biol. Chem. 268:8711-8716 (1993). To determine if cross-linking via chondroitin sulfate is also required for the stability of the TSG-6/IαI complex, purified TSG-6 protein and IαI were first incubated together to allow the formation of the complex and then treated with chondroitin sulfate ABC lyase from Proteus vulgaris or hyaluronidase from Streptomyces hyalurolyticus.

Compound	Relative Increase in mRNA Level TSG-12 [1]	Relative Increase in mRNA Level TSG-1 (IL-8) [2]	Relative Increase in mRNA Level TSG-14 [3]	Relative Increase in mRNA Level TSG-8 (MCAF) [4]	Relative Increase in mRNA Level TSG-6 [5]	Relative Increase in mRNA Level TSG-37 (MT-II) [6]	Relative Increase in mRNA Level TSG-27 (Stromelysin) [7]	Relative Increase in mRNA Level TSG-21 (Collagenase) [8]	stability of the 120-kDa complex to 8 M urea ([9]; 8 M urea added before SDS-PAGE)	stability of the complex to boiling in 2% SDS and 5% β-mercaptoethanol ([9]; SDS-PAGE under reducing conditions)	effect of chondroitin sulfate ABC lyase on the complex ([9]; preformed complex treated with chondroitin sulfate ABC lyase from Proteus vulgaris)	effect of hyaluronidase on the complex ([9]; preformed complex treated with hyaluronidase from Streptomyces hyalurolyticus)	stability of the complex to 8 M guanidine hydrochloride ([9]; treatment with 8 M guanidine hydrochloride, Western blot)
CNc1ccc2oc(C[C@H]3O[C@@]4(CC[C@H]3C)O[C@H]([C@H](C)C(=O)c3ccc[nH]3)[C@H](C)C[C@H]4C)nc2c1C(=O)O [A23187]	++	+	0	++	+	0	–	–	–	–	–	–	–
C[C@@H]1C[C@@H]([C@H](O)CC2CC(=O)NC(=O)C2)C(=O)[C@@H](C)C1 [CHX, cycloheximide]	+++	0	+	+	0	0	0	0	–	–	–	–	–
C=C[C@@]1(C)CC(=O)[C@]2(O)[C@@]3(C)[C@@H](O)CCC(C)(C)[C@@H]3[C@H](O)[C@H](OC(C)=O)[C@@]2(C)O1 [Forskolin, forskolin]	0	0	0	0	–	0	0	0	–	–	–	–	–
CCCCCCCCCCCCCC(=O)O[C@@H]1[C@@H](C)[C@@]2(O)[C@@H](C=C(CO)C[C@]3(O)C(=O)C(C)=C[C@@H]23)[C@@H]2C(C)(C)[C@]12OC(C)=O [TPA, 12-O-tetradecanoylphorbol 13-acetate]	++	+	+	++	+	+	++++	++++	–	–	–	–	–
CCCC(=O)Nc1ncnc2c1ncn2[C@@H]1O[C@@H]2COP(=O)(O)O[C@H]2[C@H]1OC(=O)CCC [dBcAMP, N^6-2′-O-dibutyl adenosine cyclic 3′,5′-monophosphate]	+	0	0	+	0	–	–	–	–	–	–	–	–
EGF: Epidermal growth factor	+	0	+	+	0	+	++	++	–	–	–	–	–
IFN-γ: E. coli-derived human gamma interferon	+	0	0	++	0	0	0	0	–	–	–	–	–
PDGF	+	0	+	+	0	0	0	0	–	–	–	–	–
TGF-β	0	0	0	–	0	0	0	0	–	–	–	–	–
TSG-6/IαI complex: stable 120 kDa complex containing TSG-6 protein, bikunin and HC2 of IαI	–	–	–	–	–	–	–	–	did not affect	resistance	complete disappearance of the complex	no effect	still detectable
